Laboratory results published in patent US10632324B2, “Method for the treatment of skin tissues” (9127-4910 Quebec Inc., priority 2017, dated 2020).

Tests used:
cystic acne = assay: Split face/back pre-PDT radiant IR study, 10 cystic acne patients (Example 8); type: in vivo, human; conditions: for decrease in the number of cystic lesions: one month after PDT
Method: In summary, ten patients were enrolled in a split face or split back (pre-treated side versus control) study with a pre-approved IRB protocol. […] Lesion count was assessed both manually and by digital photography before and 4 weeks after one PDT procedure. Prior to the application of 5-ALA, one side of the face or back was pre-treated with radiant IR [CW LEDs emitting @λ 970 nm, irradiance 50 mW/cm2 for 15 minutes, total fluence 45 J/cm2], while the other half was used as control. PDT was then performed on the entire surface (face or back) using 5-ALA in a conventional manner.
Patients were assigned to a split face or split back group. One side was pre-treated for 15 minutes with radiant IR [CW LEDs emitting @λ 970 nm, irradiance 50 mW/cm^2, total fluence 45 J/cm^2] to obtain a temperature of about 42 Celsius, while the other side was used as control. ALA was then applied after which PDT was performed on the entire face or back surface. Lesion count was assessed manually and by digital photography, before and 4 weeks after the PDT procedure. Exclusion criteria were: current use of the following medications: (Prednisone), anticoagulant therapy, drugs known to cause photo-sensitivity reactions. In addition, during 12 months preceding the study, subjects are required not to take Accutane (isotretinoin); use of corticosteroids on the treated area within 2 weeks of first treatment; use of topical tretinoin (like Retisol-A, Retin-A, Vitamin A acid, Retin-A micro) for at least 1 month prior to enrollment; yanned skin around or on the area to be treated: the back. previous laser of medicated treatment at the treatment site (to be studied) and for the duration of the study; presence of any known diseases among vitiligo, psoriasis, severe eczema, poor skin healing. active infection, immunosuppression, coagulation problem, peripheral arterial disease, hematologic abnormalities, vasculitis, and previous history of epilepsy; pregnancy; alcohol or drug abuse before and during the study.
After the pre-treatment with IR radiation, 5-ALA was applied onto slightly abraded skin and left to incubate for 60 minutes on both IR-pre-treated and control sides. Then, the 5-ALA treated regions were irradiated with a LED source of red light (wavelength of […], in accordance to standard therapy, until a mild to moderate erythema appeared. Immediately afterwards, the 5-ALA treated regions were irradiated with a LED source of blue light (wavelength of 405 nm, power density 30 mW/cm^2) in continuous wave mode for 3 min.

[1] = test system: conversion of 5-ALA to PpIX; assay: FluoDerm fluorescence after 940 nm irradiation 8-53 h before 5-ALA, two subjects (Example 11); type: in vivo, human; parameters: unit not given here
Method: In view of these promising results, another study with even longer delays before application of 5-ALA was performed. The back skin of two test subjects was irradiated with continuous wavelength and pulsed infrared light at 940 nm. These irradiations took place 50-53, 24-29, and 8-14 hours prior to the application of the 5-ALA. After a three-hour incubation period with the compound, a FluoDerm™ device was used to measure the fluorescence of the skin ([…]) a direct indication of the activity of 5-ALA. 5-ALA must penetrate the skin and then be converted to PpIX before any fluorescence increase can be observed. […] Conclusion: This preconditioning method uses a temperature-independent mechanism of action via cell signaling pathways as in photobiomodulation.

Compound: NCC(=O)CCC(=O)O [5-ALA, 5-aminolevulinic acid]
- decrease in the number of cystic lesions (cystic acne; IR pre-treated side (970 nm, 50 mW/cm2, 15 min)): 72.5%
- mean+/-standard error number of lesions after treatment (cystic acne; IR treated site, baseline 49.7+/-13.7): 12.0+/−2.3
- treatment-related adverse effects (cystic acne; both sides): No treatment-related adverse effects were reported
- decrease in the number of cystic lesions (cystic acne; control side (no IR)): 47.1%
- mean+/-standard error number of lesions after treatment (cystic acne; control side, baseline 35.9+/-8.3): 16.3+/−3
- Fluoderm Reading ([1]; subject one, 14 hour time points, CW-940, 3 h incubation): 51.0
- Fluoderm Reading ([1]; subject one, 14 hour time points, D50-940, 3 h incubation): 44.5
- Fluoderm Reading ([1]; subject one, 24 hour time points, CW-940, 3 h incubation): 48.0
- Fluoderm Reading ([1]; subject one, 24 hour time points, D50-940, 3 h incubation): 36.5
- Fluoderm Reading ([1]; subject one, 50 hour time points, CW-940, 3 h incubation): 45.0
- Fluoderm Reading ([1]; subject one, 50 hour time points, D50-940, 3 h incubation): 35.0
- Fluoderm Reading ([1]; subject one, Control, Just 5-ALA, no irradiation): 37.0
- Fluoderm Reading ([1]; subject two, 8 hour time points, CW-940, 3 h incubation): 44.0
- Fluoderm Reading ([1]; subject two, 8 hour time points, D50-940, 3 h incubation): 49.0
- Fluoderm Reading ([1]; subject two, 8 hour time points, S50-940, 3 h incubation): 51.0
- Fluoderm Reading ([1]; subject two, 29 hour time points, CW-940, 3 h incubation): 47.0
- Fluoderm Reading ([1]; subject two, 29 hour time points, D50-940, 3 h incubation): 52.0
- Fluoderm Reading ([1]; subject two, 29 hour time points, S50-940, 3 h incubation): 47.5
- Fluoderm Reading ([1]; subject two, 53 hour time points, CW-940, 3 h incubation): 55.0
- Fluoderm Reading ([1]; subject two, 53 hour time points, D50-940, 3 h incubation): 46.5
- Fluoderm Reading ([1]; subject two, 53 hour time points, S50-940, 3 h incubation): 55.0
- Fluoderm Reading ([1]; subject two, Control, Just 5-ALA, no irradiation): 46.0
